Literature values as cited in patent EP0081783B2, “Renin inhibitory peptides having Phe 13 deletion” (Merck & Co., Inc., priority 1981, dated 1989).

Test system: hog renin
Conditions: after the injection of hog renin into nephrectomized rats

## pepstatin
  blood pressure in vivo: reduce blood pressure
